Data on 4 compounds can be found in patent US5717094A, “Process and intermediates for preparing compounds having a disubstituted acetylene moiety and retinoic acid-like biological activity” (Allergan, priority 1991, dated 1998).

Each structure is given as a SMILES string.

The test system of experiment [1] is ornithine decarboxylase (ODC), TPA induced. Kind of experiment: Inhibition of TPA-induced ornithine decarboxylase (ODC) activity, essentially the method of Verma & Boutwell. The format is biochemical. As to conditions: concentration attaining 80% inhibition of TPA induced ODC activity. The source says: The retionic acid like activity of these compounds was confirmed through the classic measure of retionic acid activity involving the effects of retionic acid on ornithine decarboxylase. The original work on the correlation between retionic acid and decrease in cell proliferation was done by Verma & Boutwell, Cancer Research, 1977, 37, 2196-2201. That reference discloses that ornithine decarboxylase (ODC) activity increased precedent to polyamine biosynthesis. It has been established elsewhere that increases in polyamine synthesis can be correlated or associated with cellular proliferation. Thus, if ODC activity could be inhibited, cell hyperproliferation could be modulated. Although all causes for ODC activity increase are unknown, it is known that 12-0-tetradecanoylphorbol-13-acetate (TPA) induces ODC activity.
By way of example of retionic acid-like activity it is noted that in the assay conducted essentially in accordance with the method of Verman & Boutwell, ibid, the following examples of compounds made in accordance with the process of the present invention (Compounds 10, 11 and 12) attained an 80% inhibition of TPA induced ODC activity at the following concentrations (IC80): […]

For experiment [2] the test system is unchanged. To be noted: background statement on retinoic acid; Verma & Boutwell, Cancer Research, 1977, 37, 2196-2201; cited from earlier work.

`CCOC(=O)c1ccc(C#Cc2ccc3c(c2)C(C)(C)CC(C)(C)S3)nc1` [Compound 10]: the IC80 conc in experiment [1] came to 0.69 mmols.
Same read-out and setting: the value for `CCOC(=O)c1ccc(C#Cc2ccc3c(c2)C(C)(C)CC(C)(C)O3)nc1` [Compound 11] was 0.13 mmols.
Consider `CCOC(=O)c1ccc(C#Cc2cc3c(cc2C)OC(C)(C)CC3(C)C)nc1` [Compound 12, Ethyl-6-[(2,2,4,4,7-pentamethyl-6-chromanyl)-ethynyl nicotinate], for which, in experiment [1], the IC80 conc was determined as 0.2 mmols.
Consider `CC1=C(/C=C/C(C)=C/C=C/C(C)=C/C(=O)O)C(C)(C)CCC1` [Retionic acid, retionic acid], for which the “inhibition of induction of ODC activity by TPA” value in experiment [2] is “inhibits this induction of ODC activity by TPA”.
